Data from patent publication US6602487B1, “Methods and tests for producing and for inhibiting coronary artery vasospasms” (Dimera Incorporated, priority 1997, dated 2003).
“And” between values parts separate entries of the source, which are not always exact repeats. Equal entries are not always repeated.

System: coronary arteries
Experiment: Drug-induced (S+U) coronary vasospasm in ovariectomized monkeys with E2 plus P or MPA implants
Format: in vivo, rhesus monkeys (Macaca mulatta)
Procedure: Twelve rhesus monkeys (Macaca mulatta), aged 8 to 16 years and with weights of 5-7 kg, were ovariectomized at least 3 months prior to beginning of the study and selected randomly for one of two treatments. After documenting the lack of cardiovascular disease or previous exposure to atherogenic diet and after a normal physical examination (including blood chemistry), monkeys received subdermal sylastic implants containing 200 mg of E2. Two weeks later, sylastic implants containing either 400 mg of P or 400 mg of MPA were additionally implanted. All steroids were purchased from Steraloids (Wilton, N.H.). Both estrogen and progestin implants, providing sustained release steroids, remained in place through the catheterization study 6 weeks after beginning the study. Venous blood sample (5 ml) were collected just prior to beginning the study at weekly intervals for measurements of serum levels of E2, P, and MPA. Target levels of 80-160 pg/ml for E2, 4000-8000 pg/ml for P, and 400-800 pg/ml for MPA were based on levels that are effective by reproductive system indices in women and monkeys. Levels were measured in blood serum at catheterization by specific radio-immunoassays.
Angiography was carried out under isoflurane (0.75-1.25%) general anesthesia with 70% O2 and 30% N2O, and body temperature supported with a heating pad. After ketamine sedation (10 mg/kg) and endotracheal tube placement, both femoral arteries were cannulated for simultaneous measurement of systemic blood pressure and coronary catheterization. Intravenous anticoagulation with 1000 units of heparin and fluid replacement with 75-150 ml of lactated Ringer's solution, and if needed 10-50 ml of dextran, to reach a minimum control diastolic blood pressure of 60 mm Hg.
Coronary arteries (left anterior descending or left circumflex) of the monkeys were catheterized and agents injected as described above in Example 1.
Statistical analysis was carried out by Student's t-test (non-paired) or Chi-square, with the p<0.05 level accepted as significant.
All monkeys were treated with estradiol 17β via sylastic implants for the entire treatment period. P or MPA was added during the last 2 weeks as a second sylastic implant, to simulate the luteal phase (P) or hormone replacement therapy (MPA). All steroid implants were left in place, including during angiography. Steroid measurements were made by RIA on serum samples taken just before angiography. Indicates significant differences between P and MPA at p 0.05 (N=6 for each group).

[1] = minimum, 5-20 minutes after IC S + U

## CC(=O)[C@H]1CC[C@H]2[C@@H]3CCC4=CC(=O)CC[C@]4(C)[C@H]3CC[C@]12C [P, progesterone]
0.18 μg ACh IC
  diameter in dilator response to low dose ACh: 1.20±0.25 mm
S+U IC challenges, E2 implant plus P or MPA implant, N=6 per group
  Vasospasms (incidence): 0 of 6 and 0/6
S+U stimulation
  reduction of minimum (φ) from controls after S+U: 67%
Before S + U
  Control DBP in mm Hg: 60 ± 5 mm Hg
  Control Heart rate in bpm: 130 ± 24 bpm
Minimum diameter 3 to 5 minutes after IC S + U
  S + U (φ) minimum: 0.37±0.02 mm
[1]
  S + U stim DBP in min Hg: 30 ± 12 min Hg
  S + U stim SBP in mm Hg: 51 ± 18 mm Hg
  S + U stim heart rate in bpm: 66 ± 34 bpm
Proximal LAD or left circumflex diameter under control conditions, E2+P or E2+MPA group
  Control (φ) in mm: 1.14±0.21 mm
